Laboratory results reported in paper doi:10.1101/2020.10.13.20211417v1 (medRxiv, 2020).

Legend:
Format in all cases: in vivo, human
[1] = system: patients with acute primary supratentorial ICH; assay: Adverse events and safety endpoints, CATCH trial
[2] = system: patients with acute primary supratentorial ICH; assay: Hematoma volume from CT images
[3] = Noncompartmental plasma pharmacokinetics of CN-105 in CATCH participants; settings: for clearance / Vd / half-life: human, 1 mg/kg; for Vd: Vz
[4] = Related, Treatment Emergent Non-Serious AEs
[5] = Treatment Emergent Non-Serious AEs
[6] = non-serious TEAE events, Total, Total severity

Ac-VSRRR-NH2 [CN-105]
participants experiencing treatment emergent SAEs ([1]; 9 of 38 participants): 24% | participants experiencing nonfatal SAEs ([1]; 12 of 38 participants): 32% | central nervous system (CNS) infection ([1]; 38 participants): No participants | changes in electrocardiogram parameters ([1]; 38 participants): No participant experienced changes | treatment emergent AE constipation, participants ([1]; 38 participants): 26% | treatment emergent AE hypomagnesemia, participants ([1]; 38 participants): 18% | treatment emergent AE hyponatremia, participants ([1]; 38 participants): 18% | treatment emergent AE hypophosphatemia, participants ([1]; 38 participants): 21% | treatment emergent AE leukocytosis, participants ([1]; 38 participants): 24% | treatment emergent AE nausea, participants ([1]; 38 participants): 18% | treatment emergent AE pain, participants ([1]; 38 participants): 29% | treatment emergent AE pyrexia, participants ([1]; 38 participants): 16% | # of Events ([1]; All Non-Serious AEs): 237 | # of Events, Mild ([1]; All Non-Serious AEs): 183 | # of Events, Moderate ([1]; All Non-Serious AEs): 51 | # of Events, Severe ([1]; All Non-Serious AEs): 3 | # of Subjects ([1]; All Non-Serious AEs): 31 | # of Subjects, Mild ([1]; All Non-Serious AEs): 30 | # of Subjects, Moderate ([1]; All Non-Serious AEs): 19 | # of Subjects, Severe ([1]; All Non-Serious AEs): 2 | participants with in-hospital neurological deterioration ([1]; Five of 38, increase of NIHSS>2 from baseline persisting more than 24 hours): 13% | # of Events [1, 4]: 86 | # of Events, Mild [1, 4]: 73 | # of Events, Moderate [1, 4]: 13 | # of Events, Severe [1, 4]: 0 | # of Subjects [1, 4]: 16 | # of Subjects, Mild [1, 4]: 16 | # of Subjects, Moderate [1, 4]: 5 | # of Subjects, Severe [1, 4]: 0 | participants who died prior to 30-day follow up ([1]; Three of 38, in-hospital, related to primary disease): 8% | # of Events [1, 5]: 230 | # of Events, Mild [1, 5]: 177 | # of Events, Moderate [1, 5]: 50 | # of Events, Severe [1, 5]: 3 | # of Subjects [1, 5]: 30 | # of Subjects, Mild [1, 5]: 29 | # of Subjects, Moderate [1, 5]: 19 | # of Subjects, Severe [1, 5]: 2 | participants receiving treatment for elevated intracranial pressure ([1]; Two of 38, both died in-hospital of brain herniation from index ICH): 5% | SAE Drug administration error (Medication administration error), Relatedness ([1]; all SAEs, subject 101-003, Moderate, day 2-2, Recovered / Resolved): Unrelated | SAE Pneumonia (Left upper lobe pneumonia), Relatedness ([1]; all SAEs, subject 101-004, Moderate, day 1-8, Recovered / Resolved): Related | SAE Failure to thrive, Relatedness ([1]; all SAEs, subject 101-004, Moderate, day 23-57, Recovered / Resolved): Unrelated | SAE Cerebral haemorrhage (Left Frontal IPH), Relatedness ([1]; all SAEs, subject 101-004, Severe, day 58-62, Recovered / Resolved): Related | SAE Brain herniation (Cerebral herniation), Relatedness ([1]; all SAEs, subject 101-007, Severe, day 0-5, Fatal): Unrelated | SAE Respiratory failure (Hypoxic Respiratory Failure), Relatedness ([1]; all SAEs, subject 101-008, Moderate, day 2-4, Recovered / Resolved): Related | SAE Urinary tract infection, Relatedness ([1]; all SAEs, subject 101-013, Moderate, day 39-44, Recovered / Resolved): Unrelated | SAE Pulmonary embolism, Relatedness ([1]; all SAEs, subject 101-015, Severe, day 22-32, Recovered / Resolved): Unrelated | SAE Cerebral haemorrhage (Worsening of Intracerebral Hemorrhage), Relatedness ([1]; all SAEs, subject 101-018, Severe, day 0-6, Fatal): Unrelated | SAE Dural arteriovenous fistula, Relatedness ([1]; all SAEs, subject 102-002, Moderate, day 1-1, Recovered / Resolved): Unrelated | SAE Deep vein thrombosis (Left Popliteal Vein), Relatedness ([1]; all SAEs, subject 102-010, Severe, day 75-83, Recovered / Resolved): Unrelated | SAE Respiratory distress, Relatedness ([1]; all SAEs, subject 103-001, Moderate, day 1-35, Recovered / Resolved): Unrelated | SAE Brain herniation, Relatedness ([1]; all SAEs, subject 104-001, Severe, day 0-4, Fatal): Unrelated | SAE Partial seizures (Focal Seizure), Relatedness ([1]; all SAEs, subject 106-002, Severe, day 8-18, Recovered / Resolved): Unrelated | treatment emergent SAEs, number of events ([1]; deemed unlikely related to study drug): Eleven | Grand Total ([1]; non-serious TEAE events, Total severity): 230 (100) N (%) | Acute kidney injury [1, 6]: 4 (1.7) N (%) | Agitation [1, 6]: 5 (2.2) N (%) | Alcohol withdrawal syndrome [1, 6]: 1 (0.4) N (%) | Anemia [1, 6]: 5 (2.2) N (%) | Anxiety [1, 6]: 1 (0.4) N (%) | Atelectasis [1, 6]: 1 (0.4) N (%) | Atrial fibrillation [1, 6]: 1 (0.4) N (%) | Azotemia [1, 6]: 1 (0.4) N (%) | Bacteremia [1, 6]: 1 (0.4) N (%) | Benign prostatic hyperplasia [1, 6]: 1 (0.4) N (%) | Bladder catheterization [1, 6]: 1 (0.4) N (%) | Blood phosphorus decreased [1, 6]: 1 (0.4) N (%) | Bradycardia [1, 6]: 2 (0.9) N (%) | Brain edema [1, 6]: 2 (0.9) N (%) | Candida infection [1, 6]: 1 (0.4) N (%) | Chest pain [1, 6]: 2 (0.9) N (%) | Cognitive disorder [1, 6]: 1 (0.4) N (%) | Confusional state [1, 6]: 1 (0.4) N (%) | Constipation [1, 6]: 11 (4.8) N (%) | Cough [1, 6]: 1 (0.4) N (%) | Decubitus ulcer [1, 6]: 1 (0.4) N (%) | Deep vein thrombosis [1, 6]: 1 (0.4) N (%) | Dehydration [1, 6]: 1 (0.4) N (%) | Delirium [1, 6]: 5 (2.2) N (%) | Depressed mood [1, 6]: 3 (1.3) N (%) | Depression [1, 6]: 1 (0.4) N (%) | Diarrhea [1, 6]: 2 (0.9) N (%) | Dysphagia [1, 6]: 3 (1.3) N (%) | Dyspnea [1, 6]: 3 (1.3) N (%) | Edema [1, 6]: 2 (0.9) N (%) | Endotracheal intubation [1, 6]: 1 (0.4) N (%) | Eustachian tube dysfunction [1, 6]: 1 (0.4) N (%) | Exophthalmos [1, 6]: 1 (0.4) N (%) | Fall [1, 6]: 5 (2.2) N (%) | Flatulence [1, 6]: 2 (0.9) N (%) | Gastrointestinal hemorrhage [1, 6]: 1 (0.4) N (%) | Headache [1, 6]: 4 (1.7) N (%) | Helicobacter infection [1, 6]: 1 (0.4) N (%) | Hematocrit decreased [1, 6]: 1 (0.4) N (%) | Hydrocephalus [1, 6]: 3 (1.3) N (%) | Hyperchloremia [1, 6]: 2 (0.9) N (%) | Hyperglycemia [1, 6]: 5 (2.2) N (%) | Hyperlipidemia [1, 6]: 2 (0.9) N (%) | Hypermagnesemia [1, 6]: 2 (0.9) N (%) | Hypernatremia [1, 6]: 1 (0.4) N (%) | Hypocalcemia [1, 6]: 5 (2.2) N (%) | Hypoglycemia [1, 6]: 1 (0.4) N (%) | Hypokalemia [1, 6]: 4 (1.7) N (%) | Hypomagnesemia [1, 6]: 7 (3) N (%) | Hyponatremia [1, 6]: 7 (3) N (%) | Hypophosphatemia [1, 6]: 9 (3.9) N (%) | Hypotension [1, 6]: 2 (0.9) N (%) | Impulsive behaviour [1, 6]: 2 (0.9) N (%) | Intracranial pressure increased [1, 6]: 2 (0.9) N (%) | Lactic acidosis [1, 6]: 2 (0.9) N (%) | Leukocytosis [1, 6]: 9 (3.9) N (%) | Medical observation [1, 6]: 1 (0.4) N (%) | Muscle spasticity [1, 6]: 1 (0.4) N (%) | Musculoskeletal pain [1, 6]: 1 (0.4) N (%) | Nasal congestion [1, 6]: 3 (1.3) N (%) | Nausea [1, 6]: 7 (3) N (%) | Neuralgia [1, 6]: 2 (0.9) N (%) | Neurological decompensation [1, 6]: 1 (0.4) N (%) | Pain [1, 6]: 12 (5.2) N (%) | Partial seizures [1, 6]: 1 (0.4) N (%) | Patella fracture [1, 6]: 1 (0.4) N (%) | Pneumocephalus [1, 6]: 1 (0.4) N (%) | Pneumonia [1, 6]: 4 (1.7) N (%) | Pneumonia aspiration [1, 6]: 1 (0.4) N (%) | Pneumothorax [1, 6]: 2 (0.9) N (%) | Procedural pain [1, 6]: 1 (0.4) N (%) | Pulmonary congestion [1, 6]: 1 (0.4) N (%) | Pulmonary embolism [1, 6]: 1 (0.4) N (%) | Pyrexia [1, 6]: 6 (2.6) N (%) | Reflux gastritis [1, 6]: 1 (0.4) N (%) | Respiratory failure [1, 6]: 1 (0.4) N (%) | Scleral oedema [1, 6]: 1 (0.4) N (%) | Scrotal irritation [1, 6]: 1 (0.4) N (%) | Seizure [1, 6]: 2 (0.9) N (%) | Sepsis [1, 6]: 1 (0.4) N (%) | Sleep apnea syndrome [1, 6]: 1 (0.4) N (%) | Somnolence [1, 6]: 1 (0.4) N (%) | Staphylococcal infection [1, 6]: 1 (0.4) N (%) | Subarachnoid haemorrhage [1, 6]: 2 (0.9) N (%) | Tachycardia [1, 6]: 2 (0.9) N (%) | Tachypnea [1, 6]: 3 (1.3) N (%) | Thrombocytopenia [1, 6]: 3 (1.3) N (%) | Thrombocytosis [1, 6]: 1 (0.4) N (%) | Thrombosis [1, 6]: 1 (0.4) N (%) | Tremor [1, 6]: 1 (0.4) N (%) | Troponin increased [1, 6]: 1 (0.4) N (%) | Urinary incontinence [1, 6]: 1 (0.4) N (%) | Urinary retention [1, 6]: 4 (1.7) N (%) | Urinary tract infection [1, 6]: 4 (1.7) N (%) | Vomiting [1, 6]: 2 (0.9) N (%) | Treatment emergent SAE Pneumonia (Left upper lobe pneumonia), Relatedness ([1]; subject 101-004, Moderate, day 1-8, Recovered / Resolved): Related | Treatment emergent SAE Failure to thrive, Relatedness ([1]; subject 101-004, Moderate, day 23-57, Recovered / Resolved): Unrelated | Treatment emergent SAE Cerebral haemorrhage (Left Frontal IPH), Relatedness ([1]; subject 101-004, Severe, day 58-62, Recovered / Resolved): Related | Treatment emergent SAE Urinary tract infection, Relatedness ([1]; subject 101-013, Moderate, day 39-44, Recovered / Resolved): Unrelated | Treatment emergent SAE Pulmonary embolism, Relatedness ([1]; subject 101-015, Severe, day 22-32, Recovered / Resolved): Unrelated | Treatment emergent SAE Dural arteriovenous fistula, Relatedness ([1]; subject 102-002, Moderate, day 1-1, Recovered / Resolved): Unrelated | Treatment emergent SAE Deep vein thrombosis (Left Popliteal Vein), Relatedness ([1]; subject 102-010, Severe, day 75-83, Recovered / Resolved): Unrelated | Treatment emergent SAE Respiratory distress, Relatedness ([1]; subject 103-001, Moderate, day 1-35, Recovered / Resolved): Unrelated | Treatment emergent SAE Partial seizures (Focal Seizure), Relatedness ([1]; subject 106-002, Severe, day 8-18, Recovered / Resolved): Unrelated | Mean (SD) hematoma volume by CT ([2]; Day 1 after ICH): 25.1 (25.1) cm^3 | Mean (SD) hematoma volume by CT ([2]; Day 2 after ICH): 21.9 (24.9) cm^3 | Mean (SD) hematoma volume by CT ([2]; Day 5 after ICH): 19.7 (19.6) cm^3 | hematoma volumes versus 1:1 matched ERICH participants ([2]; Days 0, 1, 2, 5, box plots, descriptive): No difference | participants with incidence of hemorrhage extension ([2]; Nine of 38, one with clinical deterioration): 24% | Mean (SD) hematoma volume by CT ([2]; on admission): 22.8 (23.7) cm^3 | Accumulation, mean (SD) ratio of AUCs ([3]; Dose 1:Dose 13, SD): 1.3 (0.4) | CL ([3]; Maximum, N=6): 7.7 L/h | Vz ([3]; Maximum, N=6): 56.8 L | t1/2 ([3]; Maximum, N=6): 8.7 h | λz,ss ([3]; Maximum, N=6): 0.3 h⁻¹ | λz,ss ([3]; Mean, N=6, SD 0.1, after last dose): 0.2 h⁻¹ | λz,ss ([3]; Median, N=6): 0.2 h⁻¹ | CL ([3]; Minimum, N=6): 4.6 L/h | Vz ([3]; Minimum, N=6): 25.2 L | t1/2 ([3]; Minimum, N=6): 2.3 h | λz,ss ([3]; Minimum, N=6): 0.1 h⁻¹ | Mean (SD) maximum concentrations ([3]; dose 13, 1.0 mg/kg IV over 30 min every 6 h, plasma, LC-MS/MS, SD 1335.9): 5638.3 ng/mL | clearance ([3]; plasma, intravenous): 122 mL/min | Vd ([3]; plasma, intravenous, Mean, N=6, SD 12.1): 41.2 L | Vd ([3]; plasma, intravenous, Median, N=6): 37.2 L | half-life ([3]; plasma, intravenous, t1/2, Mean, N=6, SD 2.2, terminal phase): 4.5 h | half-life ([3]; plasma, intravenous, t1/2, Median, N=6): 3.8 h | clearance ([3]; plasma, iv): 113 mL/min
